Assay results as given in ChEMBL document CHEMBL4418485, “Klf5 modulators” (2015).
Activity calls are given as the source filed them. The calls are words filed in the database; no cut-off is given here.

How the values were obtained:
DLD-1 [1] = assay: Cell cycle arrest in human DLD1 cells assessed as accumulation at G1 phase accumulation after 48 hrs (reference value: 32.63 +/- 3.18%); type: functional
DLD-1 [2] = assay: Reduction in KLF5 protein expression in human DLD1 cells at 10 uM by gel electrophoresis and autoradiography; type: functional, cell-based
DLD-1 [3] = assay: Cell cycle arrest in human DLD1 cells assessed as accumulation at subG1 phase accumulation after 48 hrs (reference value: 1.27 +/- 0.15%); type: functional
DLD-1 [4] = assay: Cell cycle arrest in human DLD1 cells assessed as accumulation at subG1 phase accumulation after 24 hrs (reference value: 0.81 +/- 0.13%); type: functional
DLD-1 [5] = assay: Cell cycle arrest in human DLD1 cells assessed as accumulation at G2/M phase accumulation after 48 hrs (reference value: 58.17 +/- 4.4%); type: functional
DLD-1 [6] = assay: Cell cycle arrest in human DLD1 cells assessed as accumulation at G2/M phase accumulation after 24 hrs (reference value: 46.58 +/- 3.73%); type: functional
DLD-1 [7] = assay: Cell cycle arrest in human DLD1 cells assessed as accumulation at S phase accumulation after 48 hrs (reference value: 8.06 +/- 1.35%); type: functional
IEC-6 = assay: Growth inhibition of rat IEC-6 cells relative to control; type: cell-based
DLD-1 [8] = assay: Cell cycle arrest in human DLD1 cells assessed as accumulation at G1 phase accumulation after 24 hrs (reference value: 34.78 +/- 2.58%); type: functional
DLD-1 [9] = assay: Cell cycle arrest in human DLD1 cells assessed as accumulation at S phase accumulation after 24 hrs (reference value: 18.05 +/- 1.13%); type: functional
SW-620 = assay: Reduction in KLF5 protein expression in human SW620 cells at 10 uM by gel electrophoresis and autoradiography; type: functional, cell-based
HT-29 = assay: Reduction in KLF5 protein expression in human HT-29 cells at 10 uM by gel electrophoresis and autoradiography; type: functional, cell-based
HCT-116 = assay: Reduction in KLF5 protein expression in human HCT116 cells at 10 uM by gel electrophoresis and autoradiography; type: functional, cell-based

Structure (SMILES) | Activity (DLD-1 [1]) [%] | Activity (DLD-1 [2]) | Activity (DLD-1 [3]) [%] | Activity (DLD-1 [4]) [%] | Activity (DLD-1 [5]) [%] | Activity (DLD-1 [6]) [%] | Activity (DLD-1 [7]) [%] | growth inhibition (GI) (IEC-6) [%] | Activity (DLD-1 [8]) [%] | Activity (DLD-1 [9]) [%] | Activity (SW-620) | Activity (HT-29) | Activity (HCT-116)
CN(C(=O)CNC(=O)/C=C/c1cccc(Cl)c1)C1CCS(=O)(=O)CC1 | 31.58 | Active | 9.63 | 7.82 | 39.36 | 29.81 | 19.74 | < 50 | 44.15 | 18.47 | Active | Active | Active
CN(C(=O)CNC(=O)/C=C/c1cccc([N+](=O)[O-])c1)C1CCS(=O)(=O)C1 (stereo not given) | – | inactive | – | – | – | – | – | – | – | – | inactive | inactive | inactive
CN(C(=O)CNC(=O)/C=C/c1cccc(Cl)c1)C1CCS(=O)(=O)C1 (stereo not given) | – | inactive | – | – | – | – | – | – | – | – | inactive | inactive | inactive
CN(C(=O)COC(=O)/C=C/c1cccc([N+](=O)[O-])c1)C1CCS(=O)(=O)C1 (stereo not given) | – | inactive | – | – | – | – | – | – | – | – | inactive | inactive | inactive
